According to patent US5677285A, “Derivatives of neuraminic acid” (Fidia S.P.A., priority 1992, dated 1997):
“Also recorded” adds a separate entry of the source.

Tests used:
[1] = test system: cerebellar granule cells; experiment: Protective effect on exogenous glutamate induced neurotoxicity, pretreatment, MTT test; type: cell-based, Sprague-Dawley rats; settings: glutamate 100 μM, 2 hours pretreatment
Experimental: Primary cell cultures of cerebellar granule Cells were prepared from 6 day old Sprague-Dawley rats. Neurons were grown in 35 mm plates for 11-13 days and maintained in a humid environment (95% air and 5% CO2). Cultures (3×10^6 cells/plate) are mainly formed by granule cells (95%) with a small amount (5%) of glial cells (Gallo V. et al.: Selective release of glutamate from cerebellar granule cells differentiating in culture. Proc. Natl. Acad. Sci. USA 79, 7919-23, 1982). Glial proliferation was prevented by arabinofuranoside cytosine.
Derivative ND37 was solubilized at a concentration of 1×10^-2 M in dimethylsulfoxide (1% DMSO) and then diluted at various concentrations in Locke's solution (154 mM NaCl/1/5.6 mM KCl/3.6 mM NaHCO3 /2.3 mM CaCl2 /1 mM MgCl2 /5.6 mM glucose/5 mM HEPES, pH 7.4). The following concentrations were tested: 5×10^-6 M, 1×10^-5 M, and 2×10^-5 M.
The cell culture medium was aspirated from the plates (and correctly maintained). Plates were washed (3×2 ml) with Locke's solution, and solutions (1.5 ml) containing the compound to be tested (concentrations from 5×10^-6 M to 2×10^-5 M) were added and incubated for 2 hours in an incubator at 37° C. (5% CO2).
Treated cells were washed (3×2 ml) with Locke's solution+10% fetal calf serum, then washed (3×2 ml) with Locke's solution without Mg^++. 100 μM glutamate (1.5 ml) in Locke's solution (-Mg^++) or culture medium (controls) were added. Incubation with glutamate was performed for 15 minutes at room temperature (27° C.). Glutamate was removed, the plates were washed with Locke's solution (2×2 ml), and then incubated in presence of the starting medium (correctly maintained) for 24 hours at 37° C. in an incubator (5% C2 O). At the end of the incubation, cellular viability was assayed via quantification by the MTT colorimetric test (Mosmann T.: Rapid colorimetric assay for cellular growth and survival: application to proliferation and cytotoxicity assays. J. Immunol. Meth. 65, 55: 63, 1983 and modified according to Skaper S. D. et al.: Death of cultured hippocampal pyramidal neurons induced by pathological activation of N-methyl-D-aspartate receptors is reduced by monosialogangliosides. J. Pharm. Exp. Ter. 259,1 452-457, 1991). Data are expressed as % survival. The significance was calculated according to the Dunnett test.

[2] = test system: C1300 mouse neuroblastoma cells, Neuro-2a clone; experiment: Neuritogenic activity (cells with neurites, optical microscopy); type: cell-based
Experimental: C1300 mouse neuroblastoma cells, Neuro-2a clone, (American Cell Type Culture Collection, Bethesda, Md.) were grown at a density of 10,000 cells/well in a culture medium containing Dulbecco's modified Eagle medium (DMEM, Flow), 10% fetal calf serum (FCS, batch IP 02, Seromed), penicillin (100 units per ml, Irvine), and L-glutamine (2 mM, Sigma). Cells were incubated at 37° C. for 24 hours, and medium was removed and substituted with 350 μl of fresh medium plus compounds to be tested.
Tested Compounds and Their Solubilization
Compounds ND35 and ND37 were solubilized at a concentration of 1×10^-2 M in dimethylsulfoxide (1% DMSO). For the different compounds, progressive dilutions in culture medium were performed (concentrations from 1×10^-5 to 1×10^-4 M).
Neuritogenic activity (cell number with neurites, optical microscopy)
Culture plates were incubated with compounds to be tested and analyzed using a phase contrast microscope (250×). Nine fields with prefixed coordinates were chosen and photographed. Then the total number of cells and those with neurites (length at least double the cell diameter) were counted in blind in each photograph. The percentage of cells with neurites was determined after counting of at least 100 cells (Facci L. et al.: Promotion of neuritogenesis in mouse neuroblastoma cells by exogenous ganglioside GM1. J. Neurochem. Raven Press, New York, 299-305,1984).

[3] = test system: cerebellar granule cells and cortical neurons; experiment: Whole cell registration of glutamate-activated inward currents; type: cell-based, rats; settings: glutamate 50 μM given contemporaneously with ND37 30 μM; absence of Mg++
Experimental: (§1) Primary cell cultures of cerebellar granule cells were prepared from 8 day old rats (Zivic Miller, Pittsburgh, Pa, USA).
(§2) Neurons were grown on 35 mm plates for 7-8 days and maintained in a humid environment (95% air and 5% CO2). Cultures (2.5×10^6 cells/plate) were mainly formed by granule cells (95%), with a small amount (5%) of glial cells (Gallo V. et al.: Selective release of glutamate from cerebellar granule cells differentiating in culture. Proc. Natl. Acad. Sci. USA 79, 7919-23, 1982). Glial proliferation was prevented by arabinofuranoside cytosine.
Primary cell cultures of cortical neurons were prepared from one day old neonatal […] (Zivic Miller, Pittsburgh, Pa., USA) (Bertolino and Vicini: Mol. Pharmacol. 34, 98-103, 1988).
Cultures were grown on 35 mm plates, to which was added 10 μg/ml of poly-L-lysine, at a density of 5×10^5 cortical neurons/plate. Cultures were prepared on basal Eagle medium (Gibco) containing 10% fetal calf serum (Gibco), 25 mM KCl, 2 mM glutamine, and 100 μg/ml gentamycine. […]
Derivative ND37 was solubilized at a concentration of 1×10^-2 M in dimethylsulfoxide (1% DMSO), and then diluted at various concentrations in Locke's solution (-Mg^++) (154 mM NaCl/5.6 mM KCl/3.6 mM NaHCO3 /2.3 mM CaCl2 /5.6 mM glucose/5 mM HEPES, pH 7.4). ND37 was analyzed at concentrations of 20 and 30 μM. […]

[4] = test system: glutamate-activated cationic channels (cerebellar granule neurons); experiment: Single channel current registration of glutamate-activated cationic channels; type: cell-based, rats
Experimental: as §1, §2
Derivative ND37 was solubilized at a concentration of 1×10^-2 M in dimethylsulfoxide (1% DMSO), and then diluted at various concentrations in Locke's solution (-Mg^++) (154 mM NaCl/5.6 mM KCl/3.6 mM NaHCO3 /2.3 mM CaCl2 /5.6 mM glucose/5 mM HEPES, pH 7.4). ND37 was analyzed at concentrations of 20 and 30 μM.
Experiments were performed at room temperature utilizing the following medium 145 mM NaCl, 1 mM CaCl2, 5 mM glucose, and 5 mM HEPES/NaOH at pH 7.4, and patch pipettes, close to the preparation, containing 145 mM CsCl2, 1 mM CaCl2, 11 mM ethyleneglycol (β-aminoethyl ether) bis N,N'-tetraacetic acid, 10 mM HEPES/Cs(OH)2 at pH 7.2. Plates were continually perfused at a flow rate of 1 ml/min.
b) The activation by glutamate of single channels was externally recorded on membrane portions prepared from cerebellar granule cells pretreated with ND37 for 30 minutes at 37° C. Micropipettes, filled (1 μM) with glutamate, were positioned close to the membrane portions and were also utilized in order to drip the neurotransmitter. Single channel currents were registered according to the method described by Bertolini and Vicini ("Voltage-dependent block by strychnine of N-methyl-D-aspartic acid-activated cationic channels in rat cortical neurons in culture", Mol. Pharmacol. 34, 98-103, 1988).

[5] = test system: cerebellar granule cells; experiment: Protective effect on exogenous glutamate-induced neurotoxicity during cotreatment, FDA/PI test; type: cell-based, rats; settings: Rattus norvegicus, 24 h, glutamate 50 μM cotreatment, read-out: % surviving cells N = 4 (average + s.e.) FDA/PI test
Experimental: Primary cerebellar granule cells were prepared from 8 day old rats (Zivic Miller, Pittsburgh, Pa, USA). […] Glial proliferation was prevented by arabinofuranoside cytosine.
The following concentrations were tested: 5×10^-6 M, 1×10^-5 M, and 2×10^5 M.
The cell culture medium was aspirated from the plates (and correctly maintained). Plates were washed (3×2 ml) with Locke's solution without Mg^++, and solutions (1.5 ml) containing the compound to be tested (concentrations from 5×10^6 M to 2×10^5 M) were added and incubated for 2 hours in an incubator at 37° C. (5% CO2).
Treated cells were washed (3×2 ml) with Locke's solution+10% fetal calf serum, then washed (3×2 ml) with Locke's solution without Mg^++. 1.5 ml of Locke's solution (-Mg^++) or 50 μM of glutamate±the test compound (concentrations between 1 and 4×10^-5 M) in 1.5 ml of Locke's solution (-M^++) were added. The incubation was conducted for 15 minutes (37° C.). Glutamate and the compound were removed. The plates were washed with Locke's solution (2×2 ml), and then incubated in the presence of the starting medium (correctly maintained) for 24 hours at 37° C. in an incubator (5% CO2). […] The stained cells where immediately analyzed using a standard fluorescence microscope for epiillumination (Vanox Olympus, 450 nm excitation, 520 nm emission). FDA, a non polar ester, crosses cell membranes and is hydrolyzed by intracellular esterases with the consequent production of a yellow greenish color.
After glutamate treatment, some neurons can degenerate and detach from the plates. The loss of cells was estimated by comparing the number of intact or degenerated neurons in a well defined field, which was photographed before and after 24 hours after application of glutamate. The percent of surviving neurons in 4 representative fields (magnification 40×) of each monolayer was determined by a researcher unaware of the experimental conditions, evaluating the FDA/PI color, and calculating it as follows: [formula]
Data are expressed as % of surviving cells. Significance was calculated using the Dunnett's test.

[6] = Glutamate (1 mM) + ND37 (20 uM), 30 minutes pretreatment, n = 10

CCCCCCCCCCCCCCCC(=O)NC1C(O)CC(OCC)(C(=O)N(C)C)OC1C(O)C(O)CO (stereo not drawn) [ND37, β-2-O-ethylglycoside of the dimethylamide of N-palmitoylneuraminic acid]
viability at 10 µM ([1]; Rattus norvegicus, ND37 1 × 10^-5 M, read-out: % survival): ~63%
viability at 20 µM ([1]; Rattus norvegicus, ND37 2 × 10^-5 M, read-out: % survival): ~83%
viability at 5 µM ([1]; Rattus norvegicus, ND37 5 × 10^-6 M, read-out: % survival): 37 ± 5%
MTT values ([1]; ND37 1 × 10^-5 M): 0.123 ± 0.006
MTT values ([1]; ND37 2 × 10^-5 M): 0.326 ± 0.016
MTT values ([1]; ND37 5 × 10^-6 M): 0.110 ± 0.015
Cells with neurities (%) ([2]; 1 × 10^-4 M): 48 ± 9%
Cells with neurities (%) ([2]; 1 × 10^-5 M): 5 ± 3%
neuritogenesis in vitro ([2]; 1×10^-5 to 1×10^-4 M): induce neuritogenesis
Cells with neurities (%) ([2]; 2.5 × 10^-5 M): 8 ± 4%
Cells with neurities (%) ([2]; 5 × 10^-5 M): 27 ± 5%
inside currents activated by glutamate (whole cell response) [3]: does not influence the control response; also recorded: not different
Channel conductivity [4, 6]: 50 ps
Opening frequence [4, 6]: 4.1 ± 2.1 opening/sec
effect on channel conductivity and frequency of opening ([4]; pretreatment 30 minutes with 20 μM ND37): does not influence
viability at 10 µM ([5]; ND37 1 × 10^-5 M): 34 ± 2%
viability at 20 µM ([5]; ND37 2 × 10^-5 M): 70 ± 6%
viability at 40 µM ([5]; ND37 4 × 10^-5 M): 88 ± 4.5%
